The experiment deals with T1, human PTHR1 receptor (Homo sapiens, UniProt Q03431).
T1 construct: purchased Eurofins HTS030M
T1 sequence (Q03431 27-593): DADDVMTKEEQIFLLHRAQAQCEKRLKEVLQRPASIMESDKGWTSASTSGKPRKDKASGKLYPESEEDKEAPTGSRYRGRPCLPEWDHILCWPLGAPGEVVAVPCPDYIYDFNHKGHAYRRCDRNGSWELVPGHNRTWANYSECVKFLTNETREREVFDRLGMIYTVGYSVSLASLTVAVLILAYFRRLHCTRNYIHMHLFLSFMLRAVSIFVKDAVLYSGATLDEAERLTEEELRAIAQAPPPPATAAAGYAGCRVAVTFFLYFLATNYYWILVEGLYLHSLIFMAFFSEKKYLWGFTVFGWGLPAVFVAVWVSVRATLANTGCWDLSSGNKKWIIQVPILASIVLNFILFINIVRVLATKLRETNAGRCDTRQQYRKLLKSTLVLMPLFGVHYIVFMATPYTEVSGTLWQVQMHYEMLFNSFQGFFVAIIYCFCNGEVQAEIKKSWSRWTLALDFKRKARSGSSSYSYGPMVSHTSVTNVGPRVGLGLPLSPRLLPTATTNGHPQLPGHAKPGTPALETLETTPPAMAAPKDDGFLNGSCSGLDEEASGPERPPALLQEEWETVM
The experiment can be described thus: Competitive antagonist binding assay for hPTH-R1 (radioactive competition binding, SPA beads). The conditions noted are these: human PTHR1 membranes, [125I]-[Nle8,18,Tyr34]-PTH(1-34) 0.2 nM, 90 minutes at room temperature; read-out: hPTHR1 Ki. The procedure, abridged:
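Human PTHR1 membranes on SPA beads incubated 90 min at room temperature with compound (typically 0-10,000 nM final) and 0.2 nM [125I]-[Nle8,18,Tyr34]-PTH(1-34) in HEPES buffer with MgCl2, CaCl2, BSA, Triton X-100 and protease inhibitors, pH 7.4. Scintillation signal read; Ki values derived.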

Take `CCN1C(=O)N(c2c(F)cc(NCCNC[C@H](O)c3ccccc3)cc2F)c2cc(C#N)ccc2-c2cc(Cl)cnc21` [1-230, 4-chloro-10-{2,6-difluoro-4-[(2-{[(2R)-2-hydroxy-2-phenylethyl]amino}ethyl)amino]phenyl}-8-ethyl-9-oxo-6,8,10-triazatricyclo[9.4.0.0^2,7]pentadeca-1(11),2(7),3,5,12,14-hexaene-13-carbonitrile]: the Ki is less than 100 nM.

Turning to `CCN1C(=O)N(c2c(F)cc(NCCN3CC[C@@H](O)C3)cc2F)c2cc(C#N)ccc2-c2cc(Cl)cnc21` [1-231, 4-chloro-10-[2,6-difluoro-4-({2-[(3R)-3-hydroxypyrrolidin-1-yl]ethyl}amino)phenyl]-8-ethyl-9-oxo-6,8,10-triazatricyclo[9.4.0.0^2,7]pentadeca-1(11),2(7),3,5,12,14-hexaene-13-carbonitrile], the Ki is less than 100 nM.

`CCN1C(=O)N(c2c(F)cc(NCCN[C@H]3C[C@@H](O)C3)cc2F)c2cc(C#N)ccc2-c2cc(F)cnc21` [1-232, 10-{2,6-difluoro-4-[(2-{[(1s,3s)-3-hydroxycyclobutyl]amino}ethyl)amino]phenyl}-8-ethyl-4-fluoro-9-oxo-6,8,10-triazatricyclo[9.4.0.0^2,7]pentadeca-1(11),2(7),3,5,12,14-hexaene-13-carbonitrile]: the Ki was less than 100 nM.

Take `CCN1C(=O)N(c2c(F)cc(NCCN[C@@H](CCSC)C(=O)O)cc2F)c2cc(C#N)ccc2-c2cc(Cl)cnc21` [1-233, (2S)-2-({2-[(4-{4-chloro-13-cyano-8-ethyl-9-oxo-6,8,10-triazatricyclo[9.4.0.0^2,7]pentadeca-1(11),2(7),3,5,12,14-hexaen-10-yl}-3,5-difluorophenyl)amino]ethyl}amino)-4-(methylsulfanyl)butanoic acid]: the inhibition constant Ki was less than 100 nM.

On to `CCN1C(=O)N(c2c(F)cc(NC3CNC3)cc2F)c2cc(C#N)ccc2-c2cc(Cl)cnc21` [1-234, 10-{4-[(azetidin-3-yl)amino]-2,6-difluorophenyl}-4-chloro-8-ethyl-9-oxo-6,8,10-triazatricyclo[9.4.0.0^2,7]pentadeca-1(11),2(7),3,5,12,14-hexaene-13-carbonitrile], for which the inhibition constant (Ki) was less than 100 nM.

Turning to `CCN1C(=O)N(c2c(F)cc(N3CC[C@H](NC)C3)cc2F)c2cc(C#N)ccc2-c2cc(Cl)cnc21` [1-235, 4-chloro-10-{2,6-difluoro-4-[(3S)-3-(methylamino)pyrrolidin-1-yl]phenyl}-8-ethyl-9-oxo-6,8,10-triazatricyclo[9.4.0.0^2,7]pentadeca-1(11),2(7),3,5,12,14-hexaene-13-carbonitrile], the Ki was less than 100 nM.

Turning to `CCN1C(=O)N(c2c(F)cc(NCCN[C@H](C)C(=O)O)cc2F)c2cc(C#N)ccc2-c2cc(Cl)cnc21` [1-236, (2R)-2-({2-[(4-{4-chloro-13-cyano-8-ethyl-9-oxo-6,8,10-triazatricyclo[9.4.0.0^2,7]pentadeca-1(11),2(7),3,5,12,14-hexaen-10-yl}-3,5-difluorophenyl)amino]ethyl}amino)propanoic acid], the Ki was less than 100 nM.

Turning to `CCN1C(=O)N(c2c(F)cc(NCCNCCN)cc2F)c2cc(C#N)ccc2-c2cc(F)cnc21` [1-237, 10-[4-({2-[(2-aminoethyl)amino]ethyl}amino)-2,6-difluorophenyl]-8-ethyl-4-fluoro-9-oxo-6,8,10-triazatricyclo[9.4.0.0^2,7]pentadeca-1(11),2(7),3,5,12,14-hexaene-13-carbonitrile], the Ki was less than 100 nM.

For the molecule `CCN1C(=O)N(c2c(F)cc(NCCNCC3CCCN3)cc2F)c2cc(C#N)ccc2-c2cc(Cl)cnc21` (stereo not shown) [1-238, 4-chloro-10-{2,6-difluoro-4-[(2-{[(pyrrolidin-2-yl)methyl]amino}ethyl)amino]phenyl}-8-ethyl-9-oxo-6,8,10-triazatricyclo[9.4.0.0^2,7]pentadeca-1(15),2(7),3,5,11,13-hexaene-13-carbonitrile], the inhibitory constant (Ki) was less than 100 nM.

For `CCN1C(=O)N(c2c(F)cc(NCCNC[C@@H](O)c3ccccc3)cc2F)c2cc(C#N)ccc2-c2cc(Cl)cnc21` [1-239, 4-chloro-10-{2,6-difluoro-4-[(2-{[(2S)-2-hydroxy-2-phenylethyl]amino}ethyl)amino]phenyl}-8-ethyl-9-oxo-6,8,10-triazatricyclo[9.4.0.0^2,7]pentadeca-1(11),2(7),3,5,12,14-hexaene-13-carbonitrile], the Ki is less than 100 nM.

As for `CCN1C(=O)N(c2c(F)cc(NCCN[C@@H](CC(C)C)C(=O)O)cc2F)c2cc(C#N)ccc2-c2cc(Cl)cnc21` [1-240, (2S)-2-({2-[(4-{4-chloro-13-cyano-8-ethyl-9-oxo-6,8,10-triazatricyclo[l9.4.0.0^2,7]pentadeca-1(11),2(7),3,5,12,14-hexaen-10-yl}-3,5-difluorophenyl)amino]ethyl}amino)-4-methylpentanoic acid], the Ki was less than 100 nM.

Take `CCN1C(=O)N(c2c(F)cc(N3CC[C@H](N)C3)cc2F)c2cc(C#N)ccc2-c2cc(Cl)cnc21` [1-241, 10-{4-[(3 S)-3-aminopyrrolidin-1-yl]-2,6-difluorophenyl}-4-chloro-8-ethyl-9-oxo-6,8,10-triazatricyclo[9.4.0.0^2,7]pentadeca-1(11),2(7),3,5,12,14-hexaene-13-carbonitrile]: the Ki is less than 100 nM.

For the molecule `CCN1C(=O)N(c2c(F)cc(NCCNCC(=O)O)cc2F)c2cc(Cl)ccc2-c2cc(Cl)cnc21` [1-242, 2-({2-[(4-{4,13-dichloro-8-ethyl-9-oxo-6,8,10-triazatricyclo[9.4.0.0^2,7]pentadeca-1(11),2(7),3,5,12,14-hexaen-10-yl}-3,5-difluorophenyl)amino]ethyl}amino)acetic acid], the inhibition constant Ki was less than 100 nM.

`CNCCNc1ccc(N2C(=O)N(C)c3ncccc3-c3ccc(Cl)cc32)cc1` [2-1, 13-chloro-8-methyl-10-(4-{[2-(methylamino)ethyl]amino}phenyl)-6,8,10-triazatricyclo[9.4.0.0^2,7]pentadeca-1(11),2(7),3,5,12,14-hexaen-9-one]: the Ki was in the range of 100 to 1000 nM.

For `CNCCNc1ccc(N2C(=O)N(C)c3ncccc3-c3ccc(Cl)cc32)c(F)c1` [2-2, 13-chloro-10-(2-fluoro-4-{[2-(methylamino)ethyl]amino}phenyl)-8-methyl-6,8,10-triazatricyclo[9.4.0.0^2,7]pentadeca-1(11),2(7),3,5,12,14-hexaen-9-one], the inhibition constant (Ki) lay within 100 to 1000 nM.

For the molecule `CCN1C(=O)N(c2ccc(NCCNC)cc2)c2cc(Cl)ccc2-c2cc(Cl)cnc21` [2-3, 4,13-dichloro-8-ethyl-10-(4-{[2-(methylamino)ethyl]amino}phenyl)-6,8,10-triazatricyclo[9.4.0.0^2,7]pentadeca-1(11),2(7),3,5,12,14-hexaen-9-one], the inhibition constant Ki was less than 100 nM.

As for `CCN1C(=O)N(c2ccc(NCCNC)cc2)c2cc(Cl)ccc2-c2cc(F)cnc21` [2-4, 13-chloro-8-ethyl-4-fluoro-10-(4-{[2-(methylamino)ethyl]amino}phenyl)-6,8,10-triazatricyclo[9.4.0.0^2,7]pentadeca-1(11),2(7),3,5,12,14-hexaen-9-one], the Ki is less than 100 nM.

With `CCN1C(=O)N(c2ccc(NCCNC)cc2)c2cc(Cl)ccc2-c2cc(C)cnc21` [2-5, 13-chloro-8-ethyl-4-methyl-10-(4-{[2-(methylamino)ethyl]amino}phenyl)-6,8,10-triazatricyclo[9.4.0.0^2,7]pentadeca-1(11),2(7),3,5,12,14-hexaen-9-one], the Ki is less than 100 nM.

Turning to `CCN1C(=O)N(c2ccc(NCCNC)cc2)c2cc(OC)ccc2-c2cc(Cl)cnc21` [2-6, 4-chloro-8-ethyl-13-methoxy-10-(4-{[2-(methylamino)ethyl]amino}phenyl)-6,8,10-triazatricyclo[9.4.0.0^2,7]pentadeca-1(11),2(7),3,5,12,14-hexaen-9-one], the Ki was less than 100 nM.

Turning to `CCN1C(=O)N(c2ccc(NCCNCCO)cc2F)c2cc(Cl)ccc2-c2cc(Cl)cnc21` [2-7, 4,13-dichloro-8-ethyl-10-[2-fluoro-4-({2-[(2-hydroxyethyl)amino]ethyl}amino)phenyl]-6,8,10-triazatricyclo[9.4.0.0^2,7]pentadeca-1(11),2(7),3,5,12,14-hexaen-9-one], the Ki is less than 100 nM.

Consider `CCN1C(=O)N(c2ccc(NCCNC)cc2F)c2cc(Cl)ccc2-c2cc(Cl)cnc21` [2-8, 4,13-dichloro-8-ethyl-10-(2-fluoro-4-{[2-(methylamino)ethyl]amino}phenyl)-6,8,10-triazatricyclo[9.4.0.0^2,7]pentadeca-1(11),2(7),3,5,12,14-hexaen-9-one], for which the inhibition constant (Ki) is less than 100 nM.

For the molecule `CCN1C(=O)N(c2ccc(NCCNCCO)cc2)c2cc(Cl)ccc2-c2cc(Cl)cnc21` [2-9, 4,13-dichloro-8-ethyl-10-[4-({2-[(2-hydroxyethyl)amino]ethyl}amino)phenyl]-6,8,10-triazatricyclo[9.4.0.0^2,7]pentadeca-1(11),2(7),3,5,12,14-hexaen-9-one], the Ki is less than 100 nM.
